The text below walks through data of patent US20240109881A1, “Heteroaryl Compounds as Ligand Directed Degraders of IRAK4” (Bristol-Myers Squibb Company, priority 2022, published 2024).

For this experiment, the target named is T1, IRAK4 (Homo sapiens, UniProt Q9NWZ3).
T1 construct: endogenous in cells; host or cells: THP-1 cells
T1 sequence (Q9NWZ3 1-460): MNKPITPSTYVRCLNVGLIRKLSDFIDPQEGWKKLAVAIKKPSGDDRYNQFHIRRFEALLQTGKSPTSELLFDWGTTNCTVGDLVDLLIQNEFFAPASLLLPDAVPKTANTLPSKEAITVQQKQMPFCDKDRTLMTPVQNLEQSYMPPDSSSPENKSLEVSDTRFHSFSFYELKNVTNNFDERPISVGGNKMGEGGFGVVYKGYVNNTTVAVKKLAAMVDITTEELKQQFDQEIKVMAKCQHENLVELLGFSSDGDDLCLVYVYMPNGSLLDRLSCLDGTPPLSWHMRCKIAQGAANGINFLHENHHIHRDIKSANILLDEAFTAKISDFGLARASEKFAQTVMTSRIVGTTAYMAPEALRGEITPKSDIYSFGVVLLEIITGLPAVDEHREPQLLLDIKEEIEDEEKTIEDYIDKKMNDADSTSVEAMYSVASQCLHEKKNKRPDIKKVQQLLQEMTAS
Put plainly: LVL THP1 HTRF (THP1 Homogeneous Time Resolved Fluorescence). The class given is cell-based. Particulars: THP1 cells, 18 h incubation with compound; for DC50: read-out: LVL THP1 HTRF EC50. As to the method:
Cell culture media was prepared in a tissue culture hood in a sterile environment by adding 10% FBS and 1% Penicillin Streptomycin to 500 mL no phenol red RPMI 1640 media. The media was filtered through a Nalgene Bottle Top Filter and stored at 4° C.
For Homogenous Time Resolved Fluorescence (HTRF) assays, a Cisbio HTRF kit was used, which included: Lysis Buffer #1 4×, Blocking Reagent #3 100×, 20× Antibody 1 (Anti-IRAK4 d2), 20× Antibody 2 (Anti-IRAK4 k), and Detection Buffer.
The THP1 plates were prepared by the following method. For each dosing plate, a duplicate for CTG assay was prepared. Two THP-1 T-175 flasks could be used to plate one 384 well plate. The cells were collected from two T-175 flasks into 200 mL centrifuge tubes and spun down at 1200 rpm for 10 min. The supernatant was removed completely and cells were resuspended in 7.5 mL cell culture media. To 5 μL of the cell suspension was added 25 μL of media and 30 μL of Trypan Blue stain. The cells were counted using countess (automated cell counter, Thermo Fisher Scientific) twice and the viability and live cell count was recorded. The actual cell count was […] the live cell count. Based on the count, a cell suspension was prepared in colorless RPMI media for a final concentration of 7.5e6 cells/mL. Using Standard cassette multidrop combi, 20 μL of the 7.5e6 cells/mL cell stock was added to entire 384 well plate but for top half of column 1 (negative control) The multidrop combi was always primed to achieve a steady flow and washed after use with 20 mL de-ionized water followed by 20 mL alcohol. The cells were incubated in 5% CO2 incubator at 37° C.
Dosing was conducted using the following method. To dose assay plates and CTG plate was added 20 nL of compounds in DMSO using Echo (Beckman Coulter), and the plates were incubated at 37° C. for 18 h. The compound plates were spun at 1200 rpm for 1 min before dosing. The compound plate was sealed and properly stored during incubation.
After dosing, an HTRF assay was conducted using the following method. The treatment plates (IRAK4_HTRF) were centrifuged at 600 g for 10 min. Using CyBio Felix, Automated liquid handler (Analytikjena), 13 μL cell culture media was removed. To all columns, 7.5 μL lysis buffer was added, and an additional 7.5 μL of lysis buffer was added to column 1(top half, negative control). The plate was incubated on a shaker at room temperature for 2 h. The plate was spun down at 600 g for 5 min. Custom 20×IRAK4 Antibody obtained from CISBIO Anti-IRAK4-d2 (acceptor Ab) and Anti-IRAK4-K (donor Ab) were diluted to 1× antibody mix Using a multichannel repeater, 4 μL of 1× antibody mix was added to each wellThe plate was spun down at 600 g for 5 min and incubated in the dark at room temperature for 18 h The next day (after 18 hrs), HTRF assay plate was spun down at 600 g for 5 min and read at 665/615 nm using a Envision plate reader.

Counter-ions that a name gives are not always drawn.

Turning to `C[C@H](C#N)Nc1cc(-n2ncc3cc(C#N)cnc32)ncc1-n1cc(C2CCC(CCN3CCC(c4ccc(C5CCC(=O)NC5=O)cc4)CC3)CC2)nn1` (stereo partly drawn) [P-209], the “LVL THP1 HTRF YMIN” value is reported as 0.9%.

Take `CC(C#N)Nc1cc(-n2ncc3cc(C#N)cnc32)ncc1-n1cc(C2CCC(C(F)CN3CCN(c4ccc(C5CCC(=O)NC5=O)cc4)CC3)CC2)nn1` (stereo not drawn) [P-198]: the “LVL THP1 HTRF YMIN” value was determined as 1.2% and the DC50 is 10 nM.

On to `C[C@H](C#N)Nc1cc(Nc2ncc(C#N)cc2Cl)ncc1-n1cc([C@H]2CC[C@H](CCN3CCN(c4ccc(N5CCC(=O)NC5=O)cc4)[C@@H]4COC[C@@H]43)CC2)nn1` (single isomer, unassigned) [P-503], for which the “LVL THP1 HTRF YMIN” value is 82.16% and the DC50 is 1000 nM.

On to `C[C@@H](C#N)Nc1cc(-n2ncc3cc(C#N)cnc32)ncc1-n1cc(C2CCC(CCN3CCN(c4ccc(C5CCC(=O)NC5=O)cc4)CC3)CC2)nn1` (stereo partly drawn) [P-205], for which the “LVL THP1 HTRF YMIN” value was found to be 1.1%.

On to `N#Cc1cnc2c(cnn2-c2cc(NCC3CCOCC3)c(-n3cc([C@H]4CC[C@H](CCN5CCN(c6ccc(C7CCC(=O)NC7=O)cc6)CC5)CC4)nn3)cn2)c1` (stereo partly drawn) [P-407], for which the “LVL THP1 HTRF YMIN” value is listed as 5.6% and the DC50 was 35.8 nM.

On to `C[C@H](C#N)Nc1cc(-n2ncc3cc(C#N)cnc32)ncc1-n1cc([C@H]2CC[C@H](CCN3CCC(c4ccc(N5CCC(=O)NC5=O)nc4)CC3)CC2)nn1` [P-341], for which the “LVL THP1 HTRF YMIN” value was found to be 81.8% and the DC50 stood at 2.4 nM.

`N#Cc1cnc2c(cnn2-c2cc(N[C@H]3CCC[C@@H]3O)c(-n3cc([C@H]4CC[C@H](CCN5CCN(c6ccc(C7CCC(=O)NC7=O)cc6)CC5)CC4)nn3)cn2)c1` (stereo partly drawn) [P-403]: the “LVL THP1 HTRF YMIN” value is listed as 3.7% and the DC50 was 2.5 nM.

Regarding `COc1cc([C@@]2(C)CCC(=O)NC2=O)ccc1N1CCN(CC[C@H]2CC[C@H](c3cn(-c4cnc(-n5ncc6cc(C#N)c(N)nc65)cc4N[C@H](C)C#N)nn3)CC2)C[C@@H]1C` (single isomer, unassigned) [P-302], the “LVL THP1 HTRF YMIN” value is given as 3.3% and the DC50 worked out at 10.5 nM.

Consider `C[C@H](C#N)Nc1cc(-n2ncc3cc(C#N)cnc32)ncc1-n1cc([C@H]2CC[C@H](CCN3CC[C@H]4[C@@H]3CCN4c3ccc([C@@]4(C)CCC(=O)NC4=O)nc3)CC2)nn1` (single isomer, unassigned) [P-287], for which the “LVL THP1 HTRF YMIN” value stood at 51.0% and the DC50 amounted to 1350 nM.

Consider `COc1cnc2c(cnn2-c2cc(N[C@H](C)C#N)c(-n3cc([C@H]4CC[C@H](CCN5CCN(c6ccc(C7CCC(=O)NC7=O)cc6)CC5)CC4)nn3)cn2)c1` (stereo partly drawn) [P-397], for which the “LVL THP1 HTRF YMIN” value was 6.2% and the DC50 came to 14.3 nM.

`Cc1cc(N2CCN(CC[C@H]3CC[C@H](NC(=O)c4cnc(-n5ncc6cc(C#N)c(N)nc65)cc4N[C@H](C)C#N)CC3)C[C@H]2C)ccc1C1CCC(=O)NC1=O` (stereo partly drawn) [P-172]: the “LVL THP1 HTRF YMIN” value is 1.1% and the DC50 turned out to be 10 nM.

Take `C[C@H](C#N)Nc1cc(-n2ncc3cnc(N)nc32)ncc1-n1cc([C@H]2CC[C@H](CCN3CCN(c4ccc(C5CCC(=O)NC5=O)cc4)CC3)CC2)nn1` (stereo partly drawn) [P-231]: the DC50 came to 1 nM.

As for `C[C@H](C#N)Nc1cc(Nc2ncc(C#N)cn2)ncc1-n1cc([C@H]2CC[C@H](CCN3CCN(c4ccc(C5CCC(=O)NC5=O)cc4)CC3)CC2)nn1` (stereo partly drawn) [P-388], the “LVL THP1 HTRF YMIN” value turned out to be 3.5% and the DC50 was determined as 11.1 nM.

For `C[C@H](C#N)Nc1cc(-n2ncc3cc(C#N)cnc32)ncc1-n1cc([C@H]2CC[C@H](CCN3CCC(c4ccc([C@@]5(F)CCC(=O)NC5=O)cc4)CC3)CC2)nn1` (single isomer, unassigned) [P-338], the “LVL THP1 HTRF YMIN” value is 61.2% and the DC50 came out at 501 nM.

Consider `C[C@H](C#N)Nc1cc(-n2ncc3cc(C#N)cnc32)ncc1-n1cc([C@H]2CC[C@](O)(CCN3CCN(c4ccc([C@@]5(C)CCC(=O)NC5=O)nc4)CC3)CC2)nn1` (single isomer, unassigned) [P-280], for which the “LVL THP1 HTRF YMIN” value is given as 47.7% and the DC50 stood at 107 nM.

Consider `C[C@H](C#N)Nc1cc(-n2ncc3cc(C#N)cnc32)ncc1-n1cc(C23CCC(CCN4CCN(c5ccc(C6CCC(=O)NC6=O)cc5)CC4)(CC2)C3)nn1` (stereo partly drawn) [P-202, 1-(4-(((R)-1-cyanoethyl)amino)-5-(4-(4-(2-(4-(4-(2,6-dioxopiperidin-3-yl)phenyl)piperazin-1-yl)ethyl)bicyclo[2.2.1]heptan-1-yl)-1H-1,2,3-triazol-1-yl)pyridin-2-yl)-1H-pyrazolo[3,4-b]pyridine-5-carbonitrile, TFA], for which the “LVL THP1 HTRF YMIN” value was 1.4% and the DC50 was 10 nM.

Consider `C[C@H](C#N)Nc1cc(-n2ncc3cc(C#N)cnc32)ncc1-n1cc([C@H]2CC[C@H](CCN3CCC(c4ccc(C5CCC(=O)NC5=O)cc4)CC3)CC2)nn1` (stereo partly drawn) [P-209], for which the DC50 worked out at 1 nM.

On to `C[C@H](C#N)Nc1cc(-n2ncc3cc(C#N)cnc32)ncc1-n1cc([C@H]2CC[C@H](CCN3CCC[C@@H]4[C@H]3CCCN4c3ccc([C@@]4(C)CCC(=O)NC4=O)cc3)CC2)nn1` (single isomer, unassigned) [P-414], for which the “LVL THP1 HTRF YMIN” value worked out at 71.4% and the DC50 came out at 2350 nM.

`C[C@H](C#N)Nc1cc(-n2ncc3cc(C#N)cnc32)ncc1-n1cc([C@H]2CC[C@H](CCN3C[C@@H](C)N(c4ccc(N5CCC(=O)NC5=O)cc4)C[C@@H]3C)CC2)nn1` [P-483]: the “LVL THP1 HTRF YMIN” value was 3.4% and the DC50 is 11 nM.

`C[C@@H](C#N)Nc1cc(-n2ncc3cc(C#N)cnc32)ncc1-n1cc([C@H]2CC[C@H](CCN3CCN(c4ccc(C5CCC(=O)NC5=O)cc4)CC3)CC2)nn1` (stereo partly drawn) [P-205]: the DC50 was found to be 30 nM.

Regarding `C[C@H](C#N)Nc1cc(-n2ncc3cc(C#N)cnc32)ncc1-n1cc([C@H]2CC[C@H](CCN3CCN(c4ccc(N5CCC(=O)NC5=O)nn4)CC3)CC2)nn1` [P-423], the “LVL THP1 HTRF YMIN” value was 8.6% and the DC50 came to 143 nM.

For `C[C@H](C#N)Nc1cc(-n2ncc3cc(C#N)cnc32)ncc1-n1cc(C2CCC(CCN3[C@H](C)CN(c4ccc(C5CCC(=O)NC5=O)cc4)C[C@H]3C)CC2)nn1` (stereo partly drawn) [P-221], the “LVL THP1 HTRF YMIN” value is 1.4% and the DC50 is 5 nM.

Consider `C[C@H](C#N)Nc1cc(Nc2ncc(C#N)cc2F)ncc1-n1cc([C@H]2CC[C@H](CCN3CCN(c4ccc(N5CCC(=O)NC5=O)cc4)[C@H](C)C3)CC2)nn1` [P-385], for which the “LVL THP1 HTRF YMIN” value is reported as −1.9% and the DC50 came to 8.7 nM.

Turning to `C[C@H](C#N)Nc1cc(-n2ncc3cc(C#N)cnc32)ncc1-c1ncn([C@H]2CC[C@H](CCN3CCN(c4ccc(C5CCC(=O)NC5=O)cc4)CC3)CC2)n1` (stereo partly drawn) [P-224], the DC50 stood at 60 nM.

Regarding `Cc1cc(N2CC[C@H]3[C@@H]2CCN3CC[C@H]2CC[C@H](NC(=O)c3cnc(-n4ncc5cc(C#N)cnc54)cc3N[C@H](C)C#N)CC2)ccc1N1CCC(=O)NC1=O` [P-489], the “LVL THP1 HTRF YMIN” value was found to be 84.3% and the DC50 stood at 1000 nM.

With `C[C@H](C#N)Nc1cc(-n2ncc3cc(C#N)c(N)nc32)ncc1-n1cc([C@H]2CC[C@H](CCN3CCC(c4ccc([C@@]5(F)CCC(=O)NC5=O)cc4)CC3)CC2)nn1` (single isomer, unassigned) [P-317], the “LVL THP1 HTRF YMIN” value is listed as 2.0% and the DC50 was 1.3 nM.

Consider `C[C@H](C#N)Nc1cc(-n2ncc3cc(C#N)c(N)nc32)ncc1-n1cc([C@H]2CC[C@H](CCN3CCN(c4ccc([C@@]5(C)CCC(=O)NC5=O)cn4)[C@@H](C)C3)CC2)nn1` (single isomer, unassigned) [P-258], for which the “LVL THP1 HTRF YMIN” value is 2.0% and the DC50 was found to be 6.9 nM.
